Reference: patent US6380239B1, “Substituted 1-oxo- and 1,3-dioxoisoindoline and method of reducing inflammatory cytokine levels” (Celgene Corporation, priority 1999, dated 2002)

| melting point [°C] | SMILES |
| --- | --- |
| 183 to 185 | Nc1cccc2c1CN(C(CCC(=O)O)C(=O)O)C2=O (stereo not shown) [Example 14, 1-(4-Amino-1-oxoisoindolin-2-yl)propane-1,3-dicarboxylic acid] |
| 198 to 200 | Nc1cccc2c1C(=O)N(C(CCC(=O)O)C(=O)O)C2=O (stereo not shown) [Example 16, 1-(4-Amino-1,3-dioxoisoindolin-2-yl)propane-1,3-dicarboxylic acid] |
| 182 to 184 | NC(=O)CCC(C(=O)O)N1C(=O)c2cccc([N+](=O)[O-])c2C1=O (stereo not shown) [Example 17, 2-(4-Nitro-1,3-dioxoisoindolin-2-yl)-4-carbamoylbutanoic acid] |
| 165 to 167 | NC(=O)CCC(C(=O)O)N1C(=O)c2cccc(N)c2C1=O (stereo not shown) [Example 18, 2-(4-Amino-1,3-dioxoisoindolin-2-yl)-4-carbamoylbutanoic acid] |
